From patent US20030157182A1, “Pharmaceutical preparations and their manufacture” (priority 2000, published 2003) come the findings set out here.

A short description of data set [1]: Normalised Kurtosis of the particle size distribution (Microsoft Excel KURT function on Mastersizer classes). Format: physicochemical. Conditions: for Normalised Kurtosis: particle size by volume, Mastersizer 2000 classes, 0 = mesokurtic normal distribution; for normalized Kurtosis: positive = narrow size distribution. From the text: The normalized Kurtosis is defined in formula (2) above and can be derived for a given particle size distribution by using any of a number of widely available statistical software packages, for example, Microsoft Excel.
A large number of data points is required to provide an accurate analysis of the Kurtosis of a particle size distribution. Indeed a true Kurtosis value would require the exact size of every particle in a distribution.
(§1) Using the Malvern Mastersizer 2000 we have examined the particle size by volume of a range of materials. The Mastersizer 2000 utilises a log-normal scale for description of particle sizes. We have then examined the data statistically to determine normalized Kurtosis by copying the particle size data into Microsoft Excel and performing the “KURT” function according to the method given in Example 1. Kurtosis values for those materials are given in Table 1 along with volume median diameters. A mesokurtic normal distribution has a normalized Kurtosis value of zero.
(iv) The results shown in Table 2 were analysed using the KURT function of Microsoft Excel which gave the normalized Kurtosis value of 6.93.

The nature of data set [2]: Particle size distribution by volume, Malvern Mastersizer 2000. The data set is classed as physicochemical. Conditions: for d(0.5): volume median diameter, μm.
From the text: as §1
(i) The active particles were suspended (using stirring and sonication) in cyclohexane with 0.1% lecithin. Sufficient active particles were used to ensure the necessary obscuration;
(ii) The suspension was placed in the wet cell of the Malvern Mastersizer 2000 and the particle size distribution was measured using an appropriate lens system;
(iii) The results were analysed using the proprietary software of the Mastersizer 2000 to produce the size distribution given in Table 2.

Where [3] appears, read: listed as paracetamol material according to the invention.
The mark [4] stands for this setting: listed as commercial grade of paracetamol.

For `CC(=O)Nc1ccc(O)cc1` [Paracetamol Milled Sigma, Paracetamol], in data set [1], the “Normalised Kurtosis” value is reported as −1.10. Besides, in data set [1] (listed as milled paracetamol), the “normalized Kurtosis” value is −1.1. The “volume median diameter / volume median particle size” value in data set [2] (listed as milled paracetamol) was 12 μm. The molecule also registered a d(0.5) in data set [2] of 12 µm.

`CC(=O)Nc1ccc(O)cc1` [Paracetamol from Example 1, Paracetamol]: in data set [1], the “Normalised Kurtosis” value came to 6.93. Moreover, the “normalized Kurtosis” value in data set [1] came to 6.93; in data set [1] (setting [3]) it was 6.9. In data set [2] (FIG. 2, compared to the Sigma paracetamol starting material), the “polydispersity of particle size distribution” value is reported as “much reduced polydispersity”. Moreover, the “volume median diameter / volume median particle size” value in data set [2] (setting [3]) was 12 μm. Further, the d(0.5) in data set [2] worked out at 21 µm.

In the case of `CC(=O)Nc1ccc(O)cc1` [Sigma Paracetamol, Paracetamol], the “Normalised Kurtosis” value in data set [1] was −0.43. Further, the “normalized Kurtosis” value in data set [1] (setting [4]) is given as −0.43. For the same molecule, in data set [2] (setting [4]), the “volume median diameter / volume median particle size” value is given as 19 μm. In data set [2], this molecule gave a d(0.5) of 19 µm.
